How the values were obtained:
[1] = Chromatographic (RP-HPLC) examination of lipophilicity, Snyder–Soczewiński model; assay type: physicochemical
Method: The chromatographic analysis was carried out on a Shimadzu device equipped with a pump system (LC-20AD model), a detector with a diode bench (SPD-M20A model), a degasser (DGU-20A 5R model), a chromatographic oven (CTO-10AS VP), autosampler (SIL-20AC HT model), and chromatographic column (LiChrospher 100 RP-18, 5 μm, Poznań, Poland). Analyses were performed, leading to a multicratic elution. The mobile phase was methanol (J. T. Backer, Phillipsburg, NJ, USA) or acetonitrile (J. T. Backer) and water (Hydrolab, HPL5UV model, Straszyn, Poland) in different volume ratios. In individual analyses, the concentration of the organic modifier expressed as a […] was 0.75–0.95 with a constant step of 0.05. The test compounds were dissolved in methanol. The injection volume was 10 µL. The flow was set at 1 mL/min, the temperature of the chromatography oven at 25 °C, and the detector temperature at 2 °C higher than the ambient temperature. Compounds were detected in the range 190–800 nm. All samples were tested in duplicate at least. Column dead time (tM) was determined using uracil (Sigma Aldrich). The retention coefficient was calculated using the following formula:(1) k=tR/tM−1, where tR is the retention time of the test compound in a given eluent composition, and tM is the chromatographic column dead time.
The value of lipophilicity was determined using the linear dependence of the decimal logarithm from the retention coefficient (logk) and the concentration of the organic modifier in the mobile phase, which was expressed as a volume fraction. For this purpose, the following formula was used:(2) logk=logkw+Sφ, where logk is the decimal logarithm of the retention coefficient, logkw is the value obtained by extrapolating the curve, S is the slope of the regression curve, and φ is the volume fraction of the organic modifier.
The coefficient of determination (R^2) was also calculated for the prepared curves.

[2] = test system: Human Serum Albumin (HSA); experiment: Binding to albumin, fluorescence quenching; conditions: calculated from association constant KS for albumin concentration in blood of 44 mg/mL (660 μM)
Method: Fluorescence lifetime and fluorescence intensity of HSA solutions were measured using the time-resolved Fluorescence Spectrophotometer Life Spec II (Edinburgh Instruments Ltd., Livingston, UK) with the sub-nanosecond pulsed EPLED diode emitting a light of the wavelength 280 nm. The spectrometer was equipped with electronically cooled photomultiplier Hamamatsu R928 connected with TCC900 PC Card, which incorporates all the electronic modules required for Time-Correlated Single Photon Counting (TCSPC). The fluorescence decays were recorded at an emission wavelength of 350 nm. The data were fitted with an exponential decay to obtain total fluorescence intensity and lifetime. Measurements were performed at room temperature using quartz cuvettes 3.5 × 10 mm. The exposure time of the sample was 30 s. A spectrophotometer Jasco V-550 was used for absorption measurements.
Human Serum Albumin (HSA, 97%) was purchased from Sigma Aldrich. For the fluorescence quenching measurements, the 10 µM PBS solution of HSA at pH 7.4 was prepared, and 10 mM stock solutions of studied compounds were prepared in DMSO (dimethylsulfoxide). The final concentration of studied compounds in HSA solution varied between 0 and 70 µM.
Fluorescence quenching of albumin can be described by the Stern–Volmer Equation [21]: (3) F0/F=KSV[Q]+1, where F0 and F are the fluorescence intensities in the absence and presence of quencher, respectively, [Q] is the concentration of quencher, and KSV is the Stern–Volmer quenching constant.
Due to the fact that a quencher can absorb light at the excitation and/or emission wavelengths, the measured intensity should be corrected according to the Formula [22]:(4) Fobserved=Fcorrect×10^−Aex×dex/2−Aem×dem/2, where Fobserved is the measured fluorescence, Fcorrect is the fluorescence that would be measured in the absence of absorption effect, Aex and Aem are the absorbances of ligand at the excitation (280 nm) and emission wavelength (350 nm), respectively, and dex and dem are the cuvette pathlength in the excitation and emission direction (0.35 cm and 1 cm, respectively).
As the fluorophore can be quenched by collisions or by complex formation with the quencher, there are two types of quenching: dynamic and static. They can be distinguished by lifetime measurements. […] If the quenching is known to be dynamic, then:(5) F0/F=KD[Q]+1=τ0/τ, where τ0 and τ are the lifetimes in the absence and presence of quencher, and KD is the dynamic quenching constant.
In many cases, both static and dynamic quenching occurs for the same fluorophore, then modified Stern–Volmer equation has the form:(6) F0/F=(KD[Q]+1)(KS[Q]+1)=τ0/τ(KS[Q]+1),
The dynamic portion of the quenching (KD[Q] + 1), according to Equation (5), can be determined by lifetime measurements. The portion (KS[Q] + 1) relates to static quenching, and KS is the association constant, which is given by:(7) KS=[F−Q]/[F][Q], where [F−Q] is the concentration of complex fluorophore–quencher, [F] is the concentration of uncomplexed fluorophore (concentration of free HSA molecules), and [Q] is the concentration of quencher.
In this study, the tested compounds were added to the HSA solution, and the fluorescence intensity and lifetime at 350 nm were measured for varying concentrations of ligands. On the basis of absorbance measurements of ligands at 280 nm and 350 nm, the correct fluorescence intensities were estimated using Equation (4). Then, the Stern–Volmer constants, dynamic quenching constants, and association constants of studied compounds were determined using Equations (3), (5) and (6), respectively.
Knowing the value of association constant KS, it is possible to determine the theoretical percentage of the bound and free fraction of the drug for the physiological concentration of albumin. […]

B16F10 cells = experiment: Antiproliferative activity, MTT protocol; assay type: cell-based, mouse; conditions: 0.01 mg/mL, 72 h, relative to control culture
Method: Mouse melanoma (B16F10), human lung carcinoma (A549), and human cervix (HeLa) cell lines (kindly gifted by Prof. Tomasz Drewa, a Chair of Urology, Department of Regenerative Medicine, Collegium Medicum, Nicolaus Copernicus University, Bydgoszcz, Poland) were cultivated at 37 °C, controlled CO2 atmosphere (Binder, Tuttlingen, Germany), and high humidity with RPMI cell culture medium (with L-glutamine and sodium bicarbonate, Sigma-Aldrich), supplemented with 10% of fetal bovine serum (FBS, Biowest, Nuaillé, France), as well as antibiotics (penicillin, streptomycin) and antimycotics (amphotericin B) (Sigma-Aldrich). Combretastatin A4 (CA4), doxorubicin (DoX), and […] were purchased from Sigma-Aldrich.
Cells were counted with an automated cell counter (Countess® II FL, Invitrogen by Thermo Fisher Scientific Inc., Waltham, MA, USA). […] Absorbance readout was conducted using plate reader Multiskan Spectrum (Thermo Electron Corporation, Waltham, MA, USA) at 570 nm.
Combretastatin A4 (CA4), doxorubicin (DX), and […] were employed as positive controls. Biological evaluation was performed as three independent experiments; mean response and standard deviation were calculated using Excel software (v. 2013, Microsoft Corporation, Redmond, WA, USA).

O=C1C(=Cc2cccc3ccccc23)C(=O)c2ccccc21 [Compound 3F, 2-[(naphthalen-1-yl)methylidene]-1H-indene-1,3(2H)-dione]
logkw (ACN) ([1]; RP-HPLC, acetonitrile as organic modifier, extrapolated Snyder–Soczewiński curve): 2.6107 | logkw (MeOH) ([1]; RP-HPLC, methanol as organic modifier, extrapolated Snyder–Soczewiński curve): 3.9640 | Δ = |logkw-MeOH − logkw-ACN| ([1]; difference of logkw between modifiers): 1.3533 | −S (ACN) ([1]; slope of the Snyder–Soczewiński regression curve, acetonitrile as organic modifier): 2.7449 | −S (MeOH) ([1]; slope of the Snyder–Soczewiński regression curve, methanol as organic modifier): 3.8549 | bound fraction (albumin) [2]: 93% | fraction unbound ([2]; human, human serum albumin solution (10 µM HSA), pH 7.4, read-out: free fraction (albumin)): 0.07 | Response of B16F10 cells (in words) (B16F10 cells): responded best

Reference: paper PMC8434099, “Selected Drug-Likeness Properties of 2-Arylidene-indan-1,3-dione Derivatives—Chemical Compounds with Potential Anti-Cancer Activity” (Molecules, 2021)
